Source: patent publication US8227240B2, “Systems for screening pharmaceutical chemicals” (The Washington University, priority 2001, dated 2012)

Key:
animals = conditions: in vivo; cited from earlier work
cardiac fibroblasts = assay: Mechanical tests of tissue model rings cultured with MMP inhibitor; assay type: cell-based; conditions: 50 μM GM6001 for 6 days
Experimental: The tissue models made using cardiac fibroblasts are incubated with 50 .μM GM6001 for 6 days. The tissue culture medium is replenished every other day with fresh medium containing GM6001. The tissue model rings were subjected to mechanical tests as described above.

MMPs = conditions: purified system; cited from earlier work

For CNC(=O)[C@H](Cc1c[nH]c2ccccc12)NC(=O)[C@@H](CC(=O)NO)CC(C)C [GM6001, N-[(2R)-2-(Hydroxamid-ocarbonylmethyl)-4-methylpentanoyl]-L-tryptophan methylamide], which “concentration of inhibitor at which effects in animals can be observed” value (animals) is on record?
The value was “sub mmol/l”.

And the “mechanical properties of tissue model rings compared to controls” value (cardiac fibroblasts)?
Its value is “significant reduction”.

What about the “Ki values for different MMPs” value (MMPs) of the same compound?
The value was “around nmol/l”.
